# In paper PMC6963822, “Phenolic Compounds from the Aerial Parts of Blepharis linariifolia Pers. and Their Free Radical Scavenging and Enzyme Inhibitory Activities” (Medicines, 2019):
# Legend:
# [1] = DPPH free radical scavenging activity; details: 20 min, room temperature, absorbance at 520 nm, triplicate
# Protocol: The antioxidant potential was determined using the 1,1- diphenyl-2-picrylhydrazyl (DPPH) radical scavenging method with minor modifications. In a 96-well plate, 25 μL of compound solution of different concentrations were added, followed by the addition of 75 μL of 50% EtOH and 50 μL MES buffer (200 mM, pH = 6.0). Finally, 50 μL of freshly prepared DPPH solution in ethanol (800 μM) were added, and the assay plate was incubated for 20 min in the dark at room temperature. The antioxidant activity corresponding to scavenging of DPPH radicals was measured at 520 nm with UV spectrophotometer using the following formula: Radical scavenging activity (%) = 100 × (A − B)/A, where A is the control absorbance of DPPH radicals without samples and B is the absorbance after reacting with samples. Trolox was used as the positive control.
# (§1) All the experiments were performed in triplicate. The data was analyzed using Microsoft Office Excel (2007) and results for DPPH free radical and in vitro enzyme inhibitory activities were expressed as IC50 value (μM).
# α-glucosidase [2] = experiment: α-Glucosidase inhibitory activity; format: biochemical, Saccharomyces cerevisiae; details: substrate p-nitrophenyl-α-D-glucopyranoside, 37 °C, pH 6.8, triplicate; for IC50: read-out: Enzyme Inhibitory Activities α-Glucosidase IC50
# Description: (§2) 1,1-Diphenyl-2-picrylhydrazyl (DPPH) and the enzymes α-glucosidase (from Saccharomyces cerevisiae), porcine pancreatic lipase, and mushroom tyrosinase were purchased from Sigma Aldrich, Co. (Tokyo, Japan). […] Cetilistat was obtained from Combi-Blocks, San Diego, USA, and arbutin was purchased from Nacalai Tesque, Inc. (Kyoto, Japan). 2-Morpholinoethanesulfonic acid monohydrate (MES) was purchased from Dojindo Chemical Research (Kumamoto, Japan).
# The α-glucosidase inhibitory activity was determined according to the method reported by Jabeen et al. with slight modifications. In 96-well plate, 60 μL of 0.2 M phosphate buffer (pH = 6.8), 10 μL of the test sample (final concentration range of 100 to 1.56 μg/mL), and 10 μL of α-glucosidase solution (prepared in phosphate buffer to obtain 1 U/mL) were added. The mixture was incubated at 37 °C for 5 min and 20 μL of 4 mM p-nitrophenyl-α-D-glucopyranoside substrate were added. After 12 min of incubation at 37 °C, the released p-nitrophenol was measured at 405 nm using a spectrophotometer. The percentage inhibition of α-glucosidase activity was calculated using the equation: Inhibition (%) = (1 − (Aa − Ab)/(Ac − Ad)) × 100, in which Aa is the absorbance with test sample and enzyme, Ab is the absorbance with test samples but without enzyme, Ac is the absorbance with enzyme but without test sample, and Ad is the absorbance without test samples and enzymes.
# as §1
# [3] = target: T1, porcine pancreatic lipase (Sus scrofa, UniProt P00591); experiment: Pancreatic lipase inhibitory activity; format: biochemical; details: substrate 4-methylumbelliferyl oleate, pH 7.4, triplicate; for IC50: read-out: Enzyme Inhibitory Activities Lipase IC50
# T1 construct: purchased Sigma Aldrich, Co. (Tokyo, Japan)
# T1 sequence (P00591 1-450): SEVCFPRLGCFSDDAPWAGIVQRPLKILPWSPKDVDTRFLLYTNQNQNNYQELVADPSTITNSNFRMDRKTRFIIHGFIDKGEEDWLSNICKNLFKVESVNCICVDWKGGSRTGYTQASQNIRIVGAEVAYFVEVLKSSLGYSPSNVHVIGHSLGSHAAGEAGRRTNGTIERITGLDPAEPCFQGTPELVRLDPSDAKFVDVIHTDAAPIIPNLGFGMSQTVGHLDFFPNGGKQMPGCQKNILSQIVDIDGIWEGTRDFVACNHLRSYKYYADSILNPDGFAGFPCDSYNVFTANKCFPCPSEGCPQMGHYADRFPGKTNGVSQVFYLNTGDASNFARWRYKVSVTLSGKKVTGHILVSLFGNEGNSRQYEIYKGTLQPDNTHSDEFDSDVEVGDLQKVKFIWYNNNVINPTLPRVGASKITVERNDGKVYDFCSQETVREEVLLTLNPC
# Description: as §2
# Evaluation of pancreatic lipase inhibitory activity was performed by measuring the release of 4-methylumbelliferone (4MUF) from the substrate 4-methylumbelliferyl oleate (4MUFO) as reported by Bitou et al. with slight modifications. Briefly, 50 μL of the test sample and 50 μL of pancreatic lipase (100 μg/mL in phosphate buffer of 0.2 M, pH 7.4) were mixed and incubated at room temperature for 10 min. Afterward, 100 μL of the substrate 4MUFO (0.5 mM) was added. After 10 min, the fluorescence from the release of 4MUF was measured using a microplate reader with excitation and emission wavelengths of 355 and 460 nm, respectively. Cetilistat was used as the positive control. The percentage of pancreatic lipase inhibitory activity was calculated using the following equation: Inhibition (%) = (1 − (As/Ac) × 100), where As and Ac are the absorbance of sample and control, respectively.
# as §1
# mushroom tyrosinase [4] = experiment: Tyrosinase inhibitory activity; format: biochemical, Agaricus bisporus; details: substrate L-tyrosine, 25 °C, pH 6.8, triplicate; read-out: Enzyme Inhibitory Activities Tyrosinase IC50
# Description: Antioxidants are substances that scavenge free radicals and related reactive species. Free radicals amend vital body composition such as lipids and proteins, resulting in serious conditions such as inflammatory conditions, atherosclerosis, and cancerous diseases. Therefore, dietary antioxidants are undertaken for enhancing health conditions for people under precarious sanitary conditions or to prevent serious and chronic illnesses such as neurodegenerative diseases, diabetes, and hyperlipidemia. Diabetes mellitus (DM) is a metabolic disorder characterized by high blood glucose, which is likely to cause serious side effects such as retinopathy and cataracts. […] Obesity is another example of a metabolic disorder associated with several co-morbidities, with an increasing prevalence every year. Excessive lipid accumulation could be one of the causative factors for type II diabetes, as the accumulation of lipid in the pancreas causes dysfunction of insulin-producing pancreatic β-cells. […] Tyrosinase is a key enzyme in the process of melanin synthesis. It has been isolated and identified from different sources. Among them, mushroom tyrosinase, from Agaricus bisporus, is a major source and is widely used due to its high similarity and homology to human tyrosinase. Despite the important protective role of melanin against UV-sunlight radiation, excess accumulation of this pigment results in harmful skin disorders and severe cases may cause skin cancer. […] (Tokyo, Japan). […] obtained from Combi-Blocks, San Diego, USA, and arbutin was purchased from Nacalai Tesque, Inc. (Kyoto, Japan). 2-Morpholinoethanesulfonic acid monohydrate (MES) was purchased from Dojindo Chemical Research (Kumamoto, Japan). The tyrosinase inhibitory activity was evaluated using the method reported by […] et al., with slight modifications. […] The mixture was incubated at 25 °C for 10 min. Finally, 20 μL of the substrate L-tyrosine (2 mM) were added, and the absorbance was measured at 476 nm. […] Arbutin was used as the positive control. […] All the experiments were performed in triplicate. The data was analyzed using Microsoft Office Excel (2007) and results for DPPH free radical and in vitro enzyme inhibitory activities were expressed as IC50 value (μM).
# α-glucosidase [5] = test system: α-glucosidase; parameters: method as in PMID 27581205; details: cited from earlier work
# mushroom tyrosinase [6] = details: cited from earlier work
IC50 [1] [µM],IC50 (α-glucosidase [2]) [µM],Enzyme Inhibitory Activities Lipase IC50 [3],IC50 [3] [µM],IC50 (mushroom tyrosinase [4]) [µM],Enzyme Inhibitory Activities α-Glucosidase IC50 (α-glucosidase [2]),Compound,mode of α-glucosidase inhibition (α-glucosidase [5]),inhibitory activity for mushroom tyrosinase (mushroom tyrosinase [6]),tyrosinase inhibitory activity (mushroom tyrosinase [6])
186.2 ± 1.19,46.3 ± 2.92,active,2.25 ± 0.17,136.1 ± 0.78,–,"O=C(/C=C/c1ccc(O)cc1)OC[C@H]1O[C@@H](Oc2cc(O)c3c(c2)OC(c2ccc(O)cc2)CC3=O)[C@H](O)[C@@H](O)[C@@H]1O (some centres unmarked) [6″-O-p-Coumaroylprunin (4), 6″-O-p-coumaroylprunin]",–,–,–
386.3 ± 3.42,34.7 ± 1.78,active,12.5 ± 2.04,23.1 ± 1.83,–,"O=c1cc(-c2ccc(O)cc2)oc2cc(O)cc(O)c12 [Apigenin (3), apigenin]",reversibly inhibit α-glucosidase in a noncompetitive manner,–,–
–,–,–,–,436 ± 3.71,–,"OC[C@H]1O[C@@H](Oc2ccc(O)cc2)[C@H](O)[C@@H](O)[C@@H]1O [Arbutin, arbutin, reference compound]",–,–,–
–,–,–,18.4 ± 1.71,–,–,"CCCCCCCCCCCCCCCCOc1nc2ccc(C)cc2c(=O)o1 [Cetilistat, reference compound]",–,–,–
39.07 ± 0.31,–,–,–,–,–,"Cc1c(C)c2c(c(C)c1O)CCC(C)(C(=O)O)O2 (centres unmarked) [Trolox, 6-Hydroxy-2,5,7,8-tetramethylchroman-2-carboxylic acid, reference compound]",–,–,–
217 ± 3.01,–,inactive,–,–,neither showed inhibitory activities,"COc1cc(C(=O)O)ccc1O [Vanillic acid (2), vanillic acid]",–,did not show any inhibitory activity,weak
22.03 ± 0.04,–,inactive,–,97.4 ± 2.48,neither showed inhibitory activities,"C[C@@H]1O[C@@H](O[C@@H]2[C@@H](O)[C@H](OCCc3ccc(O)c(O)c3)O[C@H](CO)[C@H]2OC(=O)/C=C/c2ccc(O)c(O)c2)[C@H](O)[C@H](O)[C@H]1O [Verbascoside (1), verbascoside]",–,–,–
